# Experimental data from patent US20200405809A1, “COMBINATION OF A CYCLIN DEPENDENT KINASE INHIBITOR AND A BET- BROMODOMAIN INHIBITOR” (Pfizer Inc., priority 2018, published 2020).
# How the values were obtained:
# [1] = system: T47D breast cancer multicellular tumor spheroids; assay: In vitro screen in T47D breast cancer multicellular tumor spheroids, BET inhibitor plus palbociclib; assay type: cell-based; conditions: for Synergy score: BET inhibitor (30, 300, 3000 nM) in combination with 25 nM palbociclib, from AUC of spheroid growth curves (Chalice Analyzer); for Growth inhibition of T47D spheroids, as average diameter (mm): combination with palbociclib (25 nM) versus single agents
# Method: T47D multicellular tumor spheroids were grown in a low-adhesion 96-well plate for use in screening. […] Two hundred T47D cells were seeded per well of 96-well ultralow attachment plates (ULA-96U, Thermo Fisher). Cells were grown for 4 days to allow spheroid formation, followed by initiation of compound treatment as indicated (day 0). […] The medium was replaced every 3 days. Spheroid average diameter was quantified every 3 days (Celigo 200-BFFL-S, Nexcelcom) and spheroid growth curves were obtained. The area-under-curve (AUC) was quantified and used to calculate synergy scores for BET inhibitors in combination with palbociclib (Chalice Analyzer, Horizon Discovery).
# [2] = system: Hs766T pancreatic cancer spheroids; assay: In vitro screen in Hs766T PDAC multicellular tumor spheroids, BET inhibitor plus palbociclib; assay type: cell-based; conditions: combination with palbociclib (50 nM) versus single agents
# Method: Hs766T multicellular tumor spheroids were grown in a low-adhesion 96-well plate for use in screening. Hs766T cells were cultured in DMEM medium supplemented with 10% fetal bovine serum (GIBCO™). 2% Matrigel (Cultrex, cat#3432-005-1) was added to the medium, and 400 cells/well were subsequently seeded per well of 96-well ultralow attachment plates (ULA-96U, Thermo Fisher). Cells were grown for 4 days to allow spheroid formation, followed by initiation of compound treatment as indicated (day 0). Cells were treated either with vehicle (DMSO), or with 3 nM, 10 nM or 30 nM of test compound B7, or 30 nM, 300 nM or 3000 nM of test compound B8. […] The medium was replaced every 3 days. Spheroid average diameter was quantified every 3 days (Celigo 200-BFFL-S, Nexcelcom). Spheroid growth curves, generated as described in Example 2, are shown in FIGS. 12A-12C (B7); and FIGS. 13A-13C (B8).
# [3] = target: BRD4 (Homo sapiens, UniProt O60885); conditions: method not given; listed beside Literature Ref.; cited from earlier work
# [4] = system: MCF-7 breast cancer xenograft; assay: In vivo study in MCF-7 breast cancer xenograft; set-up: species or system NOD scid gamma (NSG) mice; conditions: palbociclib 50 mpk plus ABBV-075 2 mpk once daily days 0-20, recovery until day 47
# Method: NOD scid gamma (NSG) mice (6-7 weeks old, Jax laboratory, Sacramento CA) were subcutaneously injected with 5×10^6 MCF-7 cells (ATCC) with 50% matrigel. When MCF-7 xenografts reached a volume of -150 mm^3, the tumor bearing mice were randomly assigned to four treatment groups, with each n=10 (vehicle, palbociclib (50 mpk), mivebresib (2 mpk), combination treatment with palbociclib (50 mpk) plus mivebresib (2 mpk)). Treatment was initiated after the randomization as indicated. Mice were treated once daily from days 0-20 and then tumors were allowed to recover until day 47. Mean tumor volumes (mm^3) are averages of MCF-7 xenografts (n=10).
Compound,Synergy score [1],"Growth inhibition of T47D spheroids, as average diameter (mm) [1]","Growth inhibition of Hs766T spheroids, as average diameter (mm) [2]",IC50 [3],Tumor growth delay and tumor growth inhibition (mean tumor volume) [4]
"COc1cc(OC)c2c(=O)[nH]c(-c3cc(C)c(OCCO)c(C)c3)nc2c1 [B6, RVX-208 (RVX000222 or apabetalone)]",0.33,enhanced growth inhibition,–,–,–
"COc1nnc2ccc(N3CCC(c4ccc(OCCN5CCN(C)C(=O)[C@H]5C)cc4)CC3)nn12 [B8, AZD5153]",–,enhanced growth inhibition,enhanced growth inhibition,–,–
"Cc1noc2c1-c1ccccc1C(c1ccc(Cl)cc1)=N[C@H]2CC(N)=O [B9, CPI-0610]",–,enhanced growth inhibition,–,–,–
"Cc1sc2c(c1C)C(c1ccc(Cl)cc1)=N[C@@H](CC(=O)OC(C)(C)C)c1nnc(C)n1-2 [B2, JQ1]",1.08,enhanced growth inhibition,–,–,–
"CCNC(=O)C[C@@H]1N=C(c2ccc(Cl)cc2)c2cc(OC)ccc2-n2c(C)nnc21 [B3, IBET-762 (GSK525762)]",–,enhanced growth inhibition,–,–,–
"COc1cc2c(cc1-c1c(C)noc1C)ncc1[nH]c(=O)n([C@H](C)c3ccccn3)c12 [B1, IBET-151 (GSK1210151)]",1.09,enhanced growth inhibition,–,–,–
"Cc1cc2cc(NS(=O)(=O)c3ccccc3F)ccc2[nH]c1=O [B4, PFI-2]",0.79,enhanced growth inhibition,–,0.096 µM,–
PFI-1 [B5],0.76,enhanced growth inhibition,–,0.136 µM,–
"Cc1sc2c(c1C)C(c1ccc(Cl)cc1)=N[C@@H](CC(=O)Nc1ccc(O)cc1)c1nnc(C)n1-2 [B10, MK-8628 (OTX015)]",–,enhanced growth inhibition,–,–,–
"CCS(=O)(=O)Nc1ccc(Oc2ccc(F)cc2F)c(-c2cn(C)c(=O)c3[nH]ccc23)c1 [B7, ABBV-075 (mivebresib)]",–,enhanced growth inhibition,enhanced growth inhibition,0.0015 µM,enhanced tumor growth delay and tumor growth inhibition
